Earlier results in patent publication US20070065414A1, “Enhanced delivery of cells” (Boston Scientific Scimed, Inc., priority 2005, published 2007).

Conditions: general statement, no experiment described

blood pool half-life: only a few seconds
SMILES: Nc1ncnc2c1ncn2[C@@H]1O[C@H](CO)[C@@H](O)[C@H]1O [Adenosine, adenosine]
